# In patent publication US10166237B2, “Compounds and methods for inducing chondrogenesis” (The Scripps Research Institute, priority 2011, dated 2019):
# What was measured:
# [1] = test system: human mesenchymal stem cells (hMSCs); experiment: chondrogenic nodule formation by hMSCs (high throughput screen); assay type: cell-based; details: Homo sapiens, Mesenchymal stem cells; first value of the cell (before the slash); read-out: CHONDROGENIC μM EC50
# Protocol: The primary screening assay was based upon the development of chondrogenic nodules. Chondrocytes can grow in monolayer in vitro, but to more closely mimic their native environment in the joint, the cells are routinely cultured in non-adherent conditions such as in pellet cultures or alginate bead suspensions.
# In the actual screen of a library of 22,000 structurally diverse heterocycles, 10^4 primary hMSCs were plated in 384 well plates in serum free DMEM. The cells were treated with 5 μM of each compound and incubated for 4 days. […] To facilitate high throughput imaged-based detection, the chondrogenic nodules were stained with […]. The Nile Red stained nodules were quantified on an Acumen eX3 (high content imaging device) by excitation with a 488 laser for rapid detection of the nodules.
# Primary hMSCs grown in a 96 well Greiner plates (50,000/well) were incubated for 4 days in the presence of the 5 uM of each DMSO or 100 nM of PRO1. On day 4, the cells were fixed with 4% formalin for 10 minutes, washed and stained with 1 μg/ml of Rhodamine B for 2 hours at room temperature.
# [2] = test system: primary bovine chondrocytes; experiment: inhibition of cytokine-induced nitric oxide release (Greiss reaction); assay type: cell-based; details: Bos taurus, Chondrocyte; second value of the cell (after the slash); TNFα and oncostatin M, 48 hours; read-out: NO INHIBTION μM IC50
# From the text: In the screen, hMSCs were used as a surrogate to future targeting of the resident MSCs with the cartilage joint. It was in that setting upon which we identified PRO1. In a joint injury, the primary cell type a therapeutic would have contact with is the chondrocyte. Although cartilage or chondrocyte-targeted screening has not lead to the development of a successful drug modifying osteoarthritis drug (DMOAD) to date, it is believed that a stem cell-based therapeutic would protect and even repair the existing chondrocytes. Therefore, protection of the articular chondrocytes and cartilage from a mature bovine knee was assessed. PRO1 and its analogues were incubated with primary bovine chondrocytes or cartilage explants cultures grown in the presence of TNFα and oncostatin M to mimic the cytokine-induced damage that can occur during OA. In the presence of the cytokine cocktail, in vitro cultured primary chondrocytes released 4-5 fold more nitric oxide (NO) than the untreated chondrocytes (50 μM vs 10 μM) as measured by the Greiss reaction. In cells treated with the cytokine cocktail and PRO1, the small molecule could effectively block the release of NO by up to 70% FIG. 2C). Similarly, in ex vivo treated cartilage explants, cytokine-induced release of glycosaminoglycans (GAG) was reduced by up to 60% by PRO1 (FIG. 2D). Finally, hMSC were grown in pellet culture for 21 days.
# (§1) Primary hMSCs were plated (10,000/well) in 384-well plates and cultured for 18 days. The cells were fixed with 4% formalin, permeabilized with triton (0.5%), digested with 0.5 mg/ml collagenase II to unwind the collagen fibrils, and then immunostained with an antibody recognizing type II collagen. DAPI (2 μg/ml) was added to visualize the nuclei. The chondrogenic nodules stained positive for type II collagen but lacked expression of type X collagen and osteocalcin, markers for chondrocyte hypertrophy and osteoblasts, respectively (not shown). 10,000 hMSCs (passages 3-5) were plated in Greiner 384-well low-bottom plates on day 1. The cells were allowed to adhere and stimulated for 48 hrs (days 2-3) with the indicated stimuli in MSC growth media (Millipore). The media was then removed and replaced with serum-free DMEM for an additional 16 days. This media was replenished on days 10 and 15 of the assay. Primary bovine chondrocytes were isolated from the articular surfaces from mature knees. After one week of culture, 8,500 cells were trypsinized and plated in Greiner 384-well white clear-bottom plates in growth media. […] 20 μl of the supernatant was mixed with 20 μl of the Greiss reagent and quantitated at 540 nm as described by the Promega kit instructions. Bovine cartilage explants (cut in circular explants in a 96 well plate) were cultured in the presence of 20 ng/ml TNFα and 10 ng/ml oncostatin M to induce GAG release for 72 hours (FIG. 2D). PRO1 was added at the indicated concentrations during the entire 72 hrs. […] Parafin sections were hydrated, incubated in low pH Antigen unmasking solution (Vector) at 90 C for 10 minutes, permeabilized with 0.1% collagenase II (only for the sections stained with type II collagen) for 10 minutes, blocked with CAS block for 10 minutes and then incubated with the primary antibody (type II collagen, aggrecan or Timp1) antibody (Abcam) overnight at 4 C. The antigens were visualized through standard ABC detection methods and developed with DAB. Representative of 3 sections stained/treatment group (independent experiments).
# hMSCs = experiment: type II collagen expression in hMSC cultures (18 day assay); assay type: cell-based, human; details: for EC50: Homo sapiens
# Protocol: The chondrogenic differentiation event was initiated quickly even though a fully differentiated chondrocyte phenotype cannot be assessed prior to 14 days in culture. In an 18 day assay, compound treatment was only required for the first 48 hrs and followed by removal and replacement of the media (in the absence of stimuli, FIG. 2B). The promotion of chondrogenic differentiation was not altered or enhanced upon longer treatment with the stimuli (data not shown).
# as §1
EC50 [1],EC50 (hMSCs),Structure (SMILES),IC50 [2],"induction of chondrogenic differentiation of hMSCs (hMSCs; compared with known inducers TGFβ3, BMP7 or BMP2, FIG. 2B)"
0.052 µM,,CN1C(=O)c2ccc(NC(=O)c3ccccc3C(=O)O)cc2C1=O [LK61],1.69 µM,
,,COC(=O)c1ccccc1C(=O)Nc1ccccc1,> 10 µM,
> 10 µM,> 10 µM,O=C(O)c1ccccc1C(=O)Nc1ncc(-c2ccc(F)c(F)c2)s1 [LK35],0.03 µM,
,,C#CCOC(=O)c1ccccc1C(=O)Nc1ccc(Cl)cc1,> 10 µM,
,,O=C(O)c1ccccc1C(=O)Nc1ccc(OC(F)F)cc1,> 10 µM,
,,O=C(O)c1ccc(C(=O)Nc2ccc(O)cc2)c(C(=O)O)c1,> 10 µM,
,,CC(=O)c1ccc(NC(=O)c2ccccc2C(=O)O)cc1 [drawing 168],> 10 µM,
,,O=C(O)c1ccc(C(=O)Nc2ccc(I)cc2)c(C(=O)O)c1,> 10 µM,
,,CCOc1ccc(NC(=O)c2cccc(O)c2C(=O)O)cc1,> 10 µM,
,,O=C(O)c1cc([N+](=O)[O-])ccc1C(=O)Nc1ccc(-c2ccccc2)cc1,> 10 µM,
,,O=C(O)c1ccc(NC(=O)c2ccccc2C(=O)O)c(C(=O)O)c1,> 10 µM,
0.125 µM,> 10 µM,"O=C(O)c1ccccc1C(=O)Nc1ccc(CCO)cc1 [Compound L11c, 2-((4-(2-hydroxyethyl)phenyl)carbamoyl)benzoic acid]",> 10 µM,
9.5 µM,11.1 µM,"O=C(O)c1ccccc1C(=O)Nc1ccc(C(F)(F)F)cc1 [Compound L4, 2-((4-(trifluoromethyl)phenyl)carbamoyl)benzoic acid]",22.1 µM,
,,CC1COCCN1C(=O)c1ccc(NC(=O)c2ccccc2C(=O)O)cc1 (stereo not drawn),2.64 µM,
,,Cc1ccc2nc(-c3ccc(NC(=O)c4ccccc4C(=O)O)cc3)sc2c1,0.987 µM,
,,COc1ccc(NC(=O)c2ccccc2C(=O)Oc2ccc(OC)cc2)cc1,> 10 µM,
,,COC(=O)c1ccccc1C(=O)Nc1ccc(C#N)cc1,> 10 µM,
> 10 µM,> 10 µM,"O=C(O)c1ccccc1C(=O)Nc1ccc(I)cc1 [Compound L11a, 2-((4-iodophenyl)carbamoyl)benzoic acid]",> 10 µM,
,,CC(C)(C)Oc1ccc(NC(=O)c2ccccc2C(=O)O)cc1,> 10 µM,
> 10 µM,> 10 µM,O=C(O)c1cc(F)ccc1C(=O)Nc1ccc(-c2ccccc2)cc1 [AKT-F],> 10 µM,

EC50 [1],EC50 (hMSCs),Structure (SMILES),IC50 [2],"induction of chondrogenic differentiation of hMSCs (hMSCs; compared with known inducers TGFβ3, BMP7 or BMP2, FIG. 2B)"
0.12 µM,> 10 µM,"O=C(O)c1ccccc1C(=O)Nc1ccc(CCCc2ccccn2)cc1 [LK15, 2-((4-(3-(pyridin-2-yl)propyl)phenyl)carbamoyl)benzoic acid]",> 10 µM,
,,Cc1ccc(Oc2ccc(NC(=O)c3ccccc3C(=O)O)cc2)cc1,> 10 µM,
,,C=COc1ccc(NC(=O)c2ccccc2C(=O)O)cc1,> 10 µM,
> 10 µM,,O=C(c1ccccc1)c1ccc(NC(=O)c2ccccc2C(=O)O)cc1,2.5 µM,
0.398 µM,,O=C(O)c1ccc(CNC(=O)c2ccccc2C(=O)O)cc1 [LK64],0.981 µM,
,,O=C(O)c1ccccc1C(=O)Nc1ccc(S(=O)(=O)N2CCCCC2)cc1,2.7 µM,
0.137 µM,0.108 µM,N#Cc1ccc(NC(=O)c2ccccc2C(=O)O)cc1 [AKT-CN],0.03 µM,more potent and efficient
> 10 µM,> 10 µM,Cc1ccc(NC(=O)c2ccccc2C(=O)O)cn1 [Compound L6],> 10 µM,
,,O=C(O)c1ccccc1C(=O)Nc1ccc(-c2csc(-c3ccccc3)n2)cc1,> 10 µM,
> 10 µM,,O=C(O)c1ccccc1C(=O)Nc1ccc(F)cc1,0.0125 µM,
,,O=C(Nc1ccc(Cc2ccccc2)cc1)c1cc(Cl)cc(Cl)c1C(=O)O,> 10 µM,
,,O=C(O)c1ccccc1C(=O)Nc1ccc(S(=O)(=O)NCc2ccccc2)cc1,> 10 µM,
> 10 µM,,CCCOC(=O)c1ccc(NC(=O)c2ccccc2C(=O)O)cc1,0.624 µM,
> 10 µM,> 10 µM,"COc1ccc(NC(=O)c2ccccc2C(=O)O)cc1 [Compound L2, 2-((4-methoxyphenyl)carbamoyl)benzoic acid]",,
3.36 µM,,"O=C(O)c1ccccc1C(=O)Nc1ccc2c(c1)OCO2 [LK62, 2-(benzo[1,3]dioxol-5-ylcarbamoyl)benzoic acid]",0.145 µM,
,,C=C(C)CS(=O)(=O)c1ccc(NC(=O)c2ccccc2C(=O)O)cc1,0.925 µM,
0.124 µM,,"COC(=O)c1ccccc1C(=O)Nc1ccc(-c2ccccc2)cc1 [LK55b, Methyl 2-([1,1′-biphenyl]-4-ylcarbamoyl)benzoate]",0.234 µM,
,,C#CCOC(=O)c1ccccc1C(=O)Nc1ccc(Br)cc1,> 10 µM,
,,CC(=O)Nc1ccc(NC(=O)c2ccccc2C(=O)O)cc1,> 10 µM,
,,CC(C)(C)c1ccc(NC(=O)c2cc(Cl)c(Cl)cc2C(=O)O)cc1,> 10 µM,

EC50 [1],EC50 (hMSCs),Structure (SMILES),IC50 [2],"induction of chondrogenic differentiation of hMSCs (hMSCs; compared with known inducers TGFβ3, BMP7 or BMP2, FIG. 2B)"
,,O=C(O)c1cc(Cl)c(Cl)cc1C(=O)Nc1ccc(Cl)cc1,> 10 µM,
,,O=C(O)c1ccccc1C(=O)Nc1ccc(Oc2ccccc2)cc1,> 10 µM,
5 µM,,O=C(O)c1ccccc1C(=O)Nc1ccccc1 [LK49],> 10 µM,
,,O=C(O)c1ccccc1C(=O)Nc1ccc([N+](=O)[O-])cc1,> 10 µM,
,,CCCCCOc1ccc(NC(=O)c2ccccc2C(=O)O)cc1,> 10 µM,
0.005 µM,,O=C(O)c1ccc(NC(=O)c2ccccc2C(=O)O)cc1 [LK53],0.146 µM,
,,O=C(O)c1ccc(C(=O)Nc2ccc(Br)cc2)c(C(=O)O)c1,> 10 µM,
0.014 µM,,"Cc1ccc(NC(=O)c2ccccc2C(=O)O)c(C(=O)O)c1 [LK60, 2-(2-carboxybenzamido)-5-methylbenzoic acid]",1.25 µM,
,,O=C(O)c1ccccc1C(=O)Nc1ccc(C(=O)N2CCOCC2)cc1,> 10 µM,
,,O=C(O)c1ccccc1C(=O)Nc1ccc(Oc2ccc3ccccc3c2)cc1,> 10 µM,
,,C=CCOC(=O)c1ccccc1C(=O)Nc1ccc(I)cc1,> 10 µM,
0.371 µM,,"O=C(O)c1ccccc1C(=O)Nc1ccc([N+](=O)[O-])cn1 [LK59, 2-((5-nitropyridin-2-yl)carbamoyl)benzoic acid]",0.491 µM,
0.126 µM,,"O=C(O)c1ccc(NC(=O)c2ccccc2C(=O)O)cc1Cl [LK63, 4-(2-carboxybenzamido)-2-chlorobenzoic acid]",0.0298 µM,
,,CCN(CC)c1ccc(NC(=O)c2ccccc2C(=O)O)cc1,2.98 µM,
,,COc1ccc(NC(=O)c2cc(Cl)c(Cl)cc2C(=O)O)cc1,> 10 µM,
,0.654 µM,[N-]=[N+]=Nc1ccc(C(=O)NCCCNC(=O)c2ccccc2C(=O)NNC(=O)CCOCCC2SCC3NC(=O)NC32)c(O)c1 (stereo not drawn) [AKT-azide],0.12 µM,
,,O=C(Nc1ccccc1)c1ccccc1C(=O)OCc1ccc([N+](=O)[O-])cc1,> 10 µM,
,,COC(=O)c1cc(C(=O)O)ccc1C(=O)Nc1ccc(C(=O)O)cc1,> 10 µM,
,,CCc1ccc(NC(=O)c2ccc(C(=O)O)cc2C(=O)O)cc1,0.925 µM,
